Experiment [1] relates to NFKB. The experiment in a line: NFKB reporter activity in THP1-Dual monocytes co-cultured with treated A20 cells. The class given is cell-based, human. Particulars: A20 cells treated 24 hours, then co-culture with THP1-Dual cells 24 hours. How it is done: A20 B-cell leukemia cells were treated with either control (DMSO) or various doses of RSL3, for 24 hours prior to co-culture with THP1-Dual cells for an additional 24 hours. RSL3 was purchased from Selleckchem (Houston, Tex.) and dissolved in DMSO. Subsequently, the THP1 supernatants were assessed for NFKB or IRF reporter activity.
(§1) A20 cells were acquired from ATCC and THP1-Dual cells acquired from InvivoGen (San Diego, Calif.). Both cell types were cultured in 96-well plates for the duration of the assay. 50,000 A20 cells were plated 24 hours prior to dosing with RSL3, with a final DMSO concentration of 0.5%. 24 hours post-treatment, THP1-Dual cells (25,000 cells/well) were added to the A20 cells. 24 hours later, 30 μl of supernatant was mixed with either 200 μl QuantiBlue (InvivoGen, San Diego, Calif.) or 50 μl QuantiLuc and absorbance or luminescence was recorded on a Molecular Devices plate reader.
A20 lymphoma cells were treated with various doses (e.g. 0.002, 0.005, 0.014, 0.041, 0.123, 0.370, 1.111, 3.333 and 10 μM) of a GPX4 inhibitor (RSL3, ML162 or ML210) in the presence or absence of 1 μM Ferrostatin-1 for 24 hours. ML162 was purchased from Cayman Chemical Company Inc and resuspended in DMSO. ML210 was purchased from Sigma-Aldrich and resuspended in DMSO. A20 lymphoma cells were also treated with DMSO as a negative control. After treatment with DMSO or a GPX4 inhibitor for 24 hours, the A20 lymphoma cells were co-cultured with THP1-Dual cells for an additional 24 hours. Subsequently, the THP1 supernatant was assessed for NFKB reporter activity. A20 cells were acquired from ATCC and THP1-Dual cells were acquired from InvivoGen (San Diego, Calif.). Both cell types were cultured in 96-well plates for the duration of the assay.

In experiment [2] the test system is NFKB. In words: NFKB reporter activity in THP1-Dual monocytes co-cultured with treated Jurkat cells. The class given is cell-based, human. The following applies: Jurkat cells treated 24 hours, then co-culture with THP1-Dual cells 24 hours. The protocol: as §1, with “Jurkat T cell leukemia cells were treated with either control (DMSO) or various doses of RSL3, for 24 hours prior to co-culture with THP1-Dual cells for an additional 24 hours. RSL3 was purchased from Selleckchem (Houston, Tex.) and dissolved in DMSO. Subsequently, the THP1 supernatants were assessed for NFKB or IRF reporter activity. Jurkat cells” for “A20 cells”, “assay. 100,000 Jurkat” for “assay. 50,000 A20”, “the Jurkat” for “the A20”

The test system of experiment [3] is NFKB. The experiment in a line: NFKB reporter activity in THP1-Dual monocytes co-cultured with treated Caki-1 cells. The class given is cell-based, human. Particulars: Caki-1 cells treated 24 hours, then co-culture with THP1-Dual cells 24 hours. How it is done:
Caki-1 renal cell carcinoma cells were treated with either control (DMSO) or various doses of Erastin, for 24 hours prior to co-culture with THP1-Dual cells for an additional 24 hours. Erastin was purchased from Selleckchem (Houston, Tex.) and dissolved in DMSO. Subsequently, the THP1 supernatants were assessed for NFKB or IRF reporter activity. Caki-1 cells were acquired from ATCC and THP1-Dual cells acquired from InvivoGen (San Diego, Calif.). Both cell types were cultured in 96-well plates for the duration of the assay. 7.500 Caki-1 cells were plated 24 hours prior to dosing with Erastin, with a final DMSO concentration of 0.5%. 24 hours post-treatment, THP1-Dual cells (25,000 cells/well) were added to the Caki-1 cells. 24 hours later, 30 μl of supernatant was mixed with either 200 μl QuantiBlue (InvivoGen) or 50 μl QuantiLuc and absorbance or luminescence was recorded on a Molecular Devices plate reader. Caki-1 renal cell carcinoma cells were treated with either control (DMSO) or various doses of RSL3, for 24 hours prior to co-culture with THP1-Dual cells for an additional 24 hours. RSL3 was purchased from Selleckchem and dissolved in DMSO. Subsequently, the THP1 supernatants were assessed for NFKB or IRF reporter activity. Caki-1 cells were acquired from ATCC and THP1-Dual cells acquired from InvivoGen (San Diego, Calif.). Both cell types were cultured in 96-well plates for the duration of the assay. 7.500 Caki-1 cells were plated 24 hours prior to dosing with […], with a final DMSO concentration of 0.5%. 24 hours post-treatment, THP1-Dual cells (25,000 cells/well) were added to the Caki-1 cells. 24 hours later, 30 μl of supernatant was mixed with either 200 μl QuantiBlue (InvivoGen, San Diego, Calif.) or 50 μl QuantiFuc and absorbance or luminescence was recorded on a Molecular Devices plate reader. […] Subsequently, the THP1 supernatant was assessed for NFKB reporter activity. […]

The subject of experiment [4] is Caki-1 renal cell carcinoma cells. In words: Viability of Caki-1 renal cell carcinoma cells treated with ferroptosis inducer, with or without Ferrostatin-1. The class given is cell-based. Particulars: various doses, 24 hours treatment.
Experiment [5] relates to Jurkat T cell leukemia cells. In words: Viability of Jurkat T cell leukemia cells treated with RSL3. The following applies: various doses, 24 hours treatment. It counts as cell-based.
Experiment [6] deals with A20 B-cell leukemia cells. The experiment in a line: Viability of A20 cells treated with GPX4 inhibitor, with or without Ferrostatin-1. It counts as cell-based. The following applies: various doses, 24 hours treatment.
The next experiment has as its system IRF. The experiment in a line: IRF reporter activity in THP1-Dual monocytes co-cultured with treated A20 cells. The class given is cell-based, human. The following applies: A20 cells treated 24 hours, then co-culture with THP1-Dual cells 24 hours. How it is done: A20 B-cell leukemia cells were treated with either control (DMSO) or various doses of RSL3, for 24 hours prior to co-culture with THP1-Dual cells for an additional 24 hours. RSL3 was purchased from Selleckchem (Houston, Tex.) and dissolved in DMSO. Subsequently, the THP1 supernatants were assessed for NFKB or IRF reporter activity. A20 cells were acquired from ATCC and THP1-Dual cells acquired from InvivoGen (San Diego, Calif.). Both cell types were cultured in 96-well plates for the duration of the assay. 50,000 A20 cells were plated 24 hours prior to dosing with RSL3, with a final DMSO concentration of 0.5%. 24 hours post-treatment, THP1-Dual cells (25,000 cells/well) were added to the A20 cells. 24 hours later, 30 μl of supernatant was mixed with either 200 μl QuantiBlue (InvivoGen, San Diego, Calif.) or 50 μl QuantiLuc and absorbance or luminescence was recorded on a Molecular Devices plate reader.

Data on 1 molecule can be found in patent publication US20210283091A1, “DECREASING IMMUNE ACTIVITY THROUGH MODULATION OF POSTCELLULAR SIGNALING FACTORS” (FLAGSHIP PIONEERING INNOVATIONS V, INC., priority 2018, published 2021).

Entries after “also recorded” stand apart in the source; their conditions may differ.

Regarding `COC(=O)c1ccc([C@H]2c3[nH]c4ccccc4c3C[C@H](C(=O)OC)N2C(=O)CCl)cc1` [RSL3], the “NFKB signaling in THP1 monocytes” value in the experiment on NFKB [1] is “elicited NFKB; also recorded: increased NFKB activity in THP1 cells in a dose dependent manner”; in the experiment with NFKB [2] it was “elicited NFKB signaling”; in the experiment on NFKB [3], “elicited NFKB signaling; also recorded: increased NFKB activity in THP1 cells in a dose dependent manner”. In experiment [4], the “viability of Caki-1 cells” value is listed as “negatively affected the viability; also recorded: decreased viability of the cells in a dose dependent manner”. Further, in experiment [5], the “viability of Jurkat T cell leukemia cells” value was “negatively affected the viability”. Further, the “viability of A20 cells” value in experiment [6] is on record as “negatively affected the viability; also recorded: decreased viability of the cells in a dose dependent manner”. Besides, the “IRF signaling in THP1 monocytes” value in the experiment on IRF is reported as “elicited”.
